Data taken from US8461181B2, “Fused heterocyclic compound and use thereof” (Sumitomo Chemical Company, Ltd., priority 2009, dated 2013).

Assays:
Format in all cases: in vivo
Nilaparvata lugens [1] = experiment: Test Example 7: foot drench of rice seedling, thirty first instar larvae of Nilaparvata lugens; conditions: soil, 144 h, 5 ml drench at foot of rice seedling, kept 7 days, thirty first instar larvae released, further 6 days
Procedure: The formulations of the present active compounds (11), (13) to (15), (17), (23), (26), (35) to (41), (43) to (45), (48) to (51), (54), (55), (209), (211) and (212) obtained by Formulation Example 5 were diluted with water so that the active ingredient concentration was 500 ppm, to prepare diluted solutions for test. Separately, a rice seedling (2 weeks after sowing, second leaf spreading stage) planted on a plastic cup was drenched at its foot with each 5 ml of the diluted solutions, and kept in a greenhouse of 25° C. for 7 days. Thirty first instar larvae of Nilaparvata lugens were released, and further kept in the greenhouse for 6 days. The number of insect of living Nilaparvata lugens […] on rice was checked, and the control value was calculated according to the following formula. Control value (%)={1-(Cb×Tai)/(Cai×Tb)}×100 Letters in the formula represent the following meanings. Cb: the number of insect before treatment on non-treated district Cai: the number of insect in observation on non-treated district Tb: the number of insect before treatment on treated district Tai: the number of insect in observation on treated district

Aphis gossypii [2] = experiment: Test Example 2: foot drench of cucumber seedling on urethane mat, Aphis gossypii; conditions: soil, 168 h, 5 ml drench at foot of cucumber seedling on urethane mat, inoculated one day after treatment, checked seven days after
Procedure: The formulations of the present active compounds (4), (5), (8), (9), (11), (12), (14), (15), (17), (20), (35) to (45), (48) to (51), (54) to (56), (206), (209) and (211) to (213) obtained by Formulation Example 5 were diluted with water so that the active ingredient concentration was 500 ppm, to prepare diluted solutions for test. Separately, a cucumber seedling (second true leaf spreading stage) planted on a urethane mat was drenched at its foot with each 5 ml of the diluted solutions, and one day after treatment, the cucumber leaf surface was inoculated with 30 Aphis gossypii (whole stage). Further seven days after, the number of insect of living Aphis gossypii […] on the leaves of this cucumber was checked, and the control value was calculated according to the following formula. Control value (%)={1-(Cb×Tai)/(Cai×Tb)}×100 Letters in the formula represent the following meanings. Cb: the number of insect before treatment on non-treated district Cai: the number of insect in observation on non-treated district Tb: the number of insect before treatment on treated district Tai: the number of insect in observation on treated district

Aphis gossypii [3] = experiment: Test Example 4: foot drench of cucumber seedling in plastic cup, inoculation after 7 days, Aphis gossypii; conditions: soil, 144 h, 5 ml drench at foot of cucumber seedling in plastic cup, kept 7 days at 25° C., inoculated, further 6 days
Procedure: The formulations of the present active compounds (3) to (7), (17), (19), (20), (22), (29) to (31), (35) to (37), (39), (41) to (45), (47) to (56), (101), (106), (121) to (123), (128), (131), (137), (139), (143), (145), (147), (211) to (213), (216) and (217) obtained by Formulation Example 5 were diluted with water so that the active ingredient concentration was 500 ppm, to prepare diluted solutions for test. Separately, a cucumber seedling (second true leaf spreading stage) planted on a plastic cup was drenched at its foot with each 5 ml of the diluted solutions, and kept in a greenhouse of 25° C. for 7 days. The cucumber leaf surface was inoculated with 30 Aphis gossypii (whole stage), and further kept in the greenhouse for 6 days, then, the number of insect of living Aphis gossypii […] on the leaves of this cucumber was checked, and the control value was calculated according to the following formula. Control value (%)={1-(Cb×Tai)/(Cai×Tb)}×100 Letters in the formula represent the following meanings. Cb: the number of insect before treatment on non-treated district Cai: the number of insect in observation on non-treated district Tb: the number of insect before treatment on treated district Tai: the number of insect in observation on treated district

Nilaparvata lugens [4] = experiment: Test Example 9: foot drench of rice seedling, twenty first instar larvae of Nilaparvata lugens; conditions: soil, 144 h, 5 ml drench at foot of rice seedling, kept 7 days, twenty first instar larvae released, further 6 days
Procedure: The formulations of the present active compounds (6), (7), (18), (22), (25), (30), (33), (46), (47), (53), (101) to (103), (106), (121) to (124), (126) to (128), (135), (139), (216) and (217) obtained by Formulation Example 5 were diluted with water so that the active ingredient concentration was 500 ppm, to prepare diluted solutions for test. Separately, a rice seedling (2 weeks after sowing, second leaf spreading stage) planted on a plastic cup was drenched at its foot with each 5 ml of the diluted solutions, and kept in a greenhouse of 25° C. for 7 days. Twenty first instar larvae of Nilaparvata lugens were released, and further kept in the greenhouse for 6 days, then, the number of insect of living Nilaparvata lugens […] on rice was checked, and the control value was calculated according to the following formula. Control value (%)={1-(Cb×Tai)/(Cai×Tb)}×100 Letters in the formula represent the following meanings. Cb: the number of insect before treatment on non-treated district Cai: the number of insect in observation on non-treated district Tb: the number of insect before treatment on treated district Tai: the number of insect in observation on treated district

Bemisia tabaci = experiment: Test Example 5: spray on tomato seedling with Bemisia tabaci larvae; conditions: 168 h, 10 ml/cup sprayed on tomato seedling with hatching Bemisia tabaci larvae, 7 days at 25° C.
Procedure: The formulations of the present active compounds (1) to (5), (7) to (15), (17) to (21), (25), (28) to (45), (48) to (56), (101) to (103), (106), (107), (117), (118), (121) to (145), (147) to (151), (153) to (155), (204), (206), (208), (209), (211) to (213) and (216) to (221) obtained by Formulation Example 5 were diluted with water so that the active ingredient concentration was 500 ppm, to prepare spray solutions for test. Separately, on a tomato seedling planted on a plastic cup, Bemisia tabaci adult insects were released and allowed to lay eggs for about 24 hours. The tomato seedling was kept in a greenhouse […], and the above-described spray solutions for test were sprayed at a proportion of 10 ml/cup on the condition of hatching of larvae from the laid eggs, and kept in a greenhouse of 25° C. for 7 days. The number of living larvae on the tomato leaves was checked, and the control value was calculated according to the following formula. Control value (%)={1−(Cb×Tai)/(Cai×Tb)}×100 Letters in the formula represent the following meanings. Cb: the number of insect before treatment on non-treated district Cai: the number of insect in observation on non-treated district Tb: the number of insect before treatment on treated district Tai: the number of insect in observation on treated district

Aphis gossypii [5] = experiment: Test Example 3: root immersion of cucumber seedling, Aphis gossypii; conditions: 168 h, cucumber root part immersed in 5 ml, inoculated one day after treatment, checked seven days after
Procedure: The formulations of the present active compounds (18), (19), (21), (22), (24), (25), (28), (31) to (34), (46), (47), (52), (53), (101) to (104), (106) to (108), (112) to (114), (117), (118), (122), (123), (126), (128), (129), (133), (134), (138), (144), (153) to (155) and (157) obtained by Formulation Example 5 were diluted with water so that the active ingredient concentration was 500 ppm, to prepare diluted solutions for test. A root part of a cucumber seedling (first true leaf spreading stage) from which soil had been washed off was immersed in 5 ml of this diluted solution, and one day after treatment, the cucumber leaf surface was inoculated with 30 Aphis gossypii (whole stage). Further seven days after, the number of insect of living Aphis gossypii […] on the leaves of this cucumber was checked, and the control value was calculated according to the following formula. Control value (%)={1-(Cb×Tai)/(Cai×Tb)}×100 Letters in the formula represent the following meanings. Cb: the number of insect before treatment on non-treated district Cai: the number of insect in observation on non-treated district Tb: the number of insect before treatment on treated district Tai: the number of insect in observation on treated district

Nilaparvata lugens [6] = experiment: Test Example 8: spray on rice seedling, 20 first instar larvae of Nilaparvata lugens; conditions: 144 h, 10 ml sprayed on rice seedling, 20 first instar larvae released, 6 days at 25° C.
Procedure: The formulations of the present active compounds (6), (7), (18), (21), (24), (25), (28) to (30), (32), (46), (52), (101) to (103), (105) to (107), (111), (112), (115), (119) to (124), (126) to (130), (133) to (135), (139), (142), (144) to (146), (149) to (151), (153), (154), (216) and (217) obtained by Formulation Example 5 were diluted with water so that the active ingredient concentration was 500 ppm, to prepare spray solutions for test. Separately, on a rice seedling (2 weeks after sowing, second leaf spreading stage) planted on a plastic cup, the drug solutions for test prepared as described above were sprayed each in an amount of 10 ml. After drying of the drug solution sprayed on rice, 20 first instar larvae of Nilaparvata lugens were released, and kept in a greenhouse of 25° C. for 6 days. Thereafter, the number of Nilaparvata lugens […] on rice was checked, and the control value was calculated according to the following formula. Control value (%)={1-(Cb×Tai)/(Cai×Tb)}×100 Letters in the formula represent the following meanings. Cb: the number of insect before treatment on non-treated district Cai: the number of insect in observation on non-treated district Tb: the number of insect before treatment on treated district Tai: the number of insect in observation on treated district

Row | Structure (SMILES) | pest or weed control at 500 ppm (Nilaparvata lugens [1]) | pest or weed control at 500 ppm (Bemisia tabaci) | also measured
1 | CC(C)Oc1cnccc1-c1nc2cc(C(F)(F)F)ccc2n1C [present active compound 11, 2-(3-isopropoxypyridin-4-yl)-1-methyl-5-trifluoromethyl-1H-benzimidazole] | ≥ 90% | – | pest or weed control at 500 ppm (Aphis gossypii [2]): ≥ 90%
2 | CSc1cnccc1-c1nc2cc(C(F)(F)F)ccc2n1C [present active compound 17, 1-methyl-2-(3-methylthiopyridin-4-yl)-5-trifluoromethyl-1H-benzimidazole] | ≥ 90% | – | pest or weed control at 500 ppm (Aphis gossypii [3]): ≥ 90%; pest or weed control at 500 ppm (Aphis gossypii [2]): ≥ 90%
3 | CC(C)Sc1cnccc1-c1nc2cc(C(F)(F)F)ccc2n1C [present active compound 23, 2-(3-isopropylthiopyridin-4-yl)-1-methyl-5-trifluoromethyl-1H-benzimidazole] | ≥ 90% | – | –
4 | Cn1c(-c2cc[n+]([O-])cc2F)nc2cc(C(F)(F)F)ccc21 [present active compound 25, 2-(3-fluoro-1-oxypyridin-4-yl)-1-methyl-5-trifluoromethyl-1H-benzimidazole] | – | ≥ 90% | pest or weed control at 500 ppm (Nilaparvata lugens [4]): ≥ 90%; pest or weed control at 500 ppm (Aphis gossypii [5]): ≥ 90%; pest or weed control at 500 ppm (Nilaparvata lugens [6]): ≥ 90%
5 | Cn1c(-c2ccnc(F)c2)nc2cc(C(F)(F)F)ccc21 [present active compound 26, 2-(2-fluoropyridin-4-yl)-1-methyl-5-trifluoromethyl-1H-benzimidazole] | ≥ 90% | – | –
6 | Cn1c(-c2ccncc2SCC(F)(F)F)nc2cc(C(F)(F)F)cnc21 [present active compound 54, 3-methyl-2-[3-(2,2,2-trifluoroethylthio)pyridin-4-yl]-6-trifluoromethyl-3H-imidazo[4,5-b]pyridine] | ≥ 90% | – | –
7 | Cn1c(-c2cc[n+]([O-])cc2)nc2cc(C(F)(F)F)cnc21 [present active compound 55, 3-methyl-2-(1-oxypyridin-4-yl)-6-trifluoromethyl-3H-imidazo[4,5-b]pyridine] | ≥ 90% | – | –
8 | Cn1c(-c2ccncc2SC(C)(C)C)nc2cc(C(F)(F)F)cnc21 [present active compound 107] | – | ≥ 90% | –
9 | CNS(=O)(=O)c1cnccc1-c1nc2cc(C(F)(F)F)cnc2n1C [present active compound 117] | – | ≥ 90% | pest or weed control at 500 ppm (Aphis gossypii [5]): ≥ 90%
10 | Cn1c(-c2ccncc2C#N)nc2cc(C(F)(F)F)cnc21 [present active compound 118] | – | ≥ 90% | pest or weed control at 500 ppm (Aphis gossypii [5]): ≥ 90%
11 | CCn1c(-c2ccncc2)nc2ccc(C(F)(F)F)cc21 [present active compound 204, 1-ethyl-2-pyridin-4-yl-6-trifluoromethyl-1H-benzimidazole] | – | ≥ 90% | –
12 | C#Cc1cnccc1-c1nc2cc(C(F)(F)F)cnc2n1C [present active compound 211, 2-(3-ethynylpyridin-4-yl-)-3-methyl-6-trifluoromethyl-3H-imidazo[4,5-b]pyridine] | ≥ 90% | – | –
13 | Cn1c(-c2ccncc2C(F)(F)F)nc2cc(C(F)(F)F)cnc21 [present active compound 212, 3-methyl-6-trifluoromethyl-2-(3-trifluoromethylpyridin-4-yl-)-3H-imidazo[4,5-b]pyridine] | ≥ 90% | – | –
